Experimental data from article PMC11467737, “Osteocalcin binds to a GPRC6A Venus fly trap allosteric site to positively modulate GPRC6A signaling” (FASEB BioAdvances, 2024).
Bridge positions count the residues as written; N and C are the ends. Ends that are not written are not given here.

Tested on: wild‐type (Gprc6a +/+) and global knock out (Gprc6a −/−) mice
Test: Serum FGF-21 (ELISA) after intraperitoneal injection in mice
Type: in vivo, mouse
Details: 2 nmol/g IP, 24 h, n ≥ 5
Experimental: 8‐week‐old wild‐type (Gprc6a ^ +/+ ) and global knock out (Gprc6a ^ −/− ) mice were injected intraperitoneally with Ocn 20–29 (2 nmol/g body weight), or vehicle (saline; 10 μL/g body weight). Serum was collected at 24 h after intraperitoneal injection. Blood glucose levels were measured by using blood glucose strips and the Accu‐Check glucometer as described.[7], [31] A mouse IL‐6 ELISA Kit was purchased from Invitrogen (Waltham, MA, USA). Rat/Mouse FGF‐21ELISA Kit was obtained from Millipore Sigma (Burlington, MA, USA).
The Gprc6a ^ −/− mouse model was created by replacing exon 2 of the GPRC6A gene with the hygromycin resistance gene, as described previously.[32] Mice were maintained and used in accordance with recommendations as described (National Research Council 1985; Guide for the Care and Use of Laboratory Animals Department of Health and Human Services Publication NIH 86–23, Institute on Laboratory Animal Resources, Rockville, MD) and following guidelines established by the University of Tennessee Health Science Center Institutional Animal Care and Use Committee. The animal study protocol was approved by the institutional review boards at University of Tennessee Health Science Center Institutional Animal Care and Use Committee.

REVCELNPDC (disulfide 4-10 (inferred)) [Ocn 20–29, synthesized human Ocn decapeptide fragment located in the middle of the protein]
Serum FGF-21 response (Gprc6a −/− mice): lost | Serum FGF-21 level versus vehicle (wild-type Gprc6a +/+ mice): significant increase
